{
  "source": "ChEMBL document CHEMBL3804819",
  "about": "“2-(Quinolin-4-yloxy)acetamides Are Active against Drug-Susceptible and Drug-Resistant Mycobacterium tuberculosis Strains” (ACS Med Chem Lett, 2016)",
  "type_in_all_cases": "functional",
  "key": {"[1]": {"tested_on": "Mycobacterium tuberculosis", "experiment": "Antibacterial activity against isoniazid-resistant Mycobacterium tuberculosis RS-032 clinical isolate harboring katG S315T mutant assessed as reduction in bacterial growth after 7 days by resazurin assay"}, "[2]": {"tested_on": "Mycobacterium tuberculosis", "experiment": "Antibacterial activity against multidrug-resistant Mycobacterium tuberculosis PE-003 clinical isolate harboring inhA C(-15)T mutant assessed as reduction in bacterial growth after 7 days by resazurin assay"}, "[3]": {"tested_on": "Mycobacterium tuberculosis", "experiment": "Antibacterial activity against isoniazid-resistant Mycobacterium tuberculosis RS-036 clinical isolate harboring inhA C(-15)T mutant assessed as reduction in bacterial growth after 7 days by resazurin assay"}, "[4]": {"tested_on": "Mycobacterium tuberculosis", "experiment": "Selectivity ratio of MIC for isoniazid-resistant Mycobacterium tuberculosis RS-032 clinical isolate harboring katG S315T mutant to MIC for Mycobacterium tuberculosis H37Rv"}},
  "data": [
    {"smiles": "COc1ccc2nc(C)cc(OCC(=O)Nc3ccccc3OC)c2c1", "values": [
      {"measurement": "MIC", "setting": "[1]", "value": 0.88, "unit": "µM"},
      {"measurement": "MIC", "setting": "[2]", "value": 0.06, "unit": "µM"},
      {"measurement": "MIC", "setting": "[3]", "value": 0.44, "unit": "µM"},
      {"measurement": "Selectivity ratio", "setting": "[4]", "value": 2}
    ]},
    {"smiles": "COc1ccc2nc(C)cc(OCC(=O)Nc3ccc(Br)cc3)c2c1", "values": [
      {"measurement": "MIC", "setting": "[1]", "value": 0.78, "unit": "µM"},
      {"measurement": "MIC", "setting": "[2]", "value": 0.05, "unit": "µM"},
      {"measurement": "MIC", "setting": "[3]", "value": 0.39, "unit": "µM"},
      {"measurement": "Selectivity ratio", "setting": "[4]", "value": 2}
    ]},
    {"smiles": "COc1ccc2nc(C)cc(OCC(=O)Nc3ccc4ccccc4c3)c2c1", "values": [
      {"measurement": "MIC", "setting": "[1]", "value": 0.84, "unit": "µM"},
      {"measurement": "MIC", "setting": "[2]", "value": 0.05, "unit": "µM"},
      {"measurement": "MIC", "setting": "[3]", "value": 0.1, "unit": "µM"},
      {"measurement": "Selectivity ratio", "setting": "[4]", "value": 2}
    ]},
    {"smiles": "COc1ccc2nc(C)cc(OCC(=O)NCc3ccccc3)c2c1", "values": [
      {"measurement": "MIC", "setting": "[1]", "value": 3.71, "unit": "µM"},
      {"measurement": "MIC", "setting": "[2]", "value": 0.46, "unit": "µM"},
      {"measurement": "MIC", "setting": "[3]", "value": 1.85, "unit": "µM"},
      {"measurement": "Selectivity ratio", "setting": "[4]", "value": 2}
    ]},
    {"smiles": "COc1ccc2nc(C)cc(OCC(=O)Nc3ccc4c(c3)OCO4)c2c1", "values": [
      {"measurement": "MIC", "setting": "[1]", "value": 3.41, "unit": "µM"},
      {"measurement": "MIC", "setting": "[2]", "value": 0.21, "unit": "µM"},
      {"measurement": "MIC", "setting": "[3]", "value": 0.85, "unit": "µM"},
      {"measurement": "Selectivity ratio", "setting": "[4]", "value": 2}
    ]},
    {"smiles": "NNC(=O)c1ccncc1", "note": "[ISONIAZID]", "values": [
      {"measurement": "MIC", "setting": "[1]", "value": ">70", "unit": "µM"},
      {"measurement": "MIC", "setting": "[2]", "value": ">70", "unit": "µM"},
      {"measurement": "MIC", "setting": "[3]", "value": ">70", "unit": "µM"}
    ]},
    {"smiles": "COc1ccc2nc(C)cc(OCC(=O)Nc3ccc(Cl)cc3)c2c1", "values": [
      {"measurement": "MIC", "setting": "[1]", "value": 0.87, "unit": "µM"},
      {"measurement": "MIC", "setting": "[2]", "value": 0.06, "unit": "µM"},
      {"measurement": "MIC", "setting": "[3]", "value": 0.44, "unit": "µM"},
      {"measurement": "Selectivity ratio", "setting": "[4]", "value": 2}
    ]},
    {"smiles": "COc1ccc(NC(=O)COc2cc(C)nc3ccc(OC)cc23)cc1", "values": [
      {"measurement": "MIC", "setting": "[1]", "value": 0.88, "unit": "µM"},
      {"measurement": "MIC", "setting": "[2]", "value": 0.06, "unit": "µM"},
      {"measurement": "MIC", "setting": "[3]", "value": 0.44, "unit": "µM"},
      {"measurement": "Selectivity ratio", "setting": "[4]", "value": 2}
    ]},
    {"smiles": "COc1cccc(NC(=O)COc2cc(C)nc3ccc(OC)cc23)c1", "values": [
      {"measurement": "MIC", "setting": "[1]", "value": 7.08, "unit": "µM"},
      {"measurement": "MIC", "setting": "[2]", "value": 0.44, "unit": "µM"},
      {"measurement": "MIC", "setting": "[3]", "value": 1.77, "unit": "µM"},
      {"measurement": "Selectivity ratio", "setting": "[4]", "value": 2}
    ]},
    {"smiles": "COc1ccc2nc(C)cc(OCC(=O)Nc3ccc(C(F)(F)F)cc3)c2c1", "values": [
      {"measurement": "MIC", "setting": "[1]", "value": 1.6, "unit": "µM"},
      {"measurement": "MIC", "setting": "[2]", "value": 0.1, "unit": "µM"},
      {"measurement": "MIC", "setting": "[3]", "value": 0.8, "unit": "µM"}
    ]},
    {"smiles": "COc1ccc2nc(C)cc(OCC(=O)Nc3ccccc3Cl)c2c1", "values": [
      {"measurement": "MIC", "setting": "[1]", "value": 1.75, "unit": "µM"},
      {"measurement": "MIC", "setting": "[2]", "value": 0.11, "unit": "µM"},
      {"measurement": "MIC", "setting": "[3]", "value": 0.44, "unit": "µM"}
    ]},
    {"smiles": "COc1ccc(NC(=O)COc2cc(C)nc3ccc(OC)cc23)c(OC)c1", "values": [
      {"measurement": "MIC", "setting": "[1]", "value": 0.81, "unit": "µM"},
      {"measurement": "MIC", "setting": "[2]", "value": 0.2, "unit": "µM"},
      {"measurement": "MIC", "setting": "[3]", "value": 0.41, "unit": "µM"},
      {"measurement": "Selectivity ratio", "setting": "[4]", "value": 2}
    ]},
    {"smiles": "COc1ccc2nc(C)cc(OCC(=O)Nc3ccccc3)c2c1", "values": [
      {"measurement": "MIC", "setting": "[1]", "value": 1.93, "unit": "µM"},
      {"measurement": "MIC", "setting": "[2]", "value": 0.24, "unit": "µM"},
      {"measurement": "MIC", "setting": "[3]", "value": 0.48, "unit": "µM"},
      {"measurement": "Selectivity ratio", "setting": "[4]", "value": 2}
    ]},
    {"smiles": "COc1ccc2nc(C)cc(OCC(=O)Nc3ccccc3C)c2c1", "values": [
      {"measurement": "MIC", "setting": "[1]", "value": 0.93, "unit": "µM"},
      {"measurement": "MIC", "setting": "[2]", "value": 0.11, "unit": "µM"},
      {"measurement": "MIC", "setting": "[3]", "value": 0.46, "unit": "µM"},
      {"measurement": "Selectivity ratio", "setting": "[4]", "value": 2}
    ]},
    {"smiles": "COc1ccc2nc(C)cc(OCC(=O)Nc3cccc(Cl)c3)c2c1", "values": [
      {"measurement": "MIC", "setting": "[1]", "value": 3.5, "unit": "µM"},
      {"measurement": "MIC", "setting": "[2]", "value": 0.22, "unit": "µM"},
      {"measurement": "MIC", "setting": "[3]", "value": 0.87, "unit": "µM"}
    ]}
  ]
}
